Laboratory results: patent publication US20200131144A1, “AMINE OR (THIO)AMIDE CONTAINING LXR MODULATORS” (Phenex-FXR GmbH, priority 2017, published 2020)

Experiments:
[1] = target: T1, LXRα full length (FL) (Homo sapiens, UniProt Q13133); assay: LXR Gal4 reporter transient transfection assay, mammalian two-hybrid, FL-M2H Gal4α; type: cell-based; settings: HEK293 cells; inverse agonist unless *
T1 construct: the full length (FL) proteins of LXRα (amino acids 1-447); NP005684; expressed in transfected cells; host or cells: HEK293
T1 sequence (Q13133 1-447): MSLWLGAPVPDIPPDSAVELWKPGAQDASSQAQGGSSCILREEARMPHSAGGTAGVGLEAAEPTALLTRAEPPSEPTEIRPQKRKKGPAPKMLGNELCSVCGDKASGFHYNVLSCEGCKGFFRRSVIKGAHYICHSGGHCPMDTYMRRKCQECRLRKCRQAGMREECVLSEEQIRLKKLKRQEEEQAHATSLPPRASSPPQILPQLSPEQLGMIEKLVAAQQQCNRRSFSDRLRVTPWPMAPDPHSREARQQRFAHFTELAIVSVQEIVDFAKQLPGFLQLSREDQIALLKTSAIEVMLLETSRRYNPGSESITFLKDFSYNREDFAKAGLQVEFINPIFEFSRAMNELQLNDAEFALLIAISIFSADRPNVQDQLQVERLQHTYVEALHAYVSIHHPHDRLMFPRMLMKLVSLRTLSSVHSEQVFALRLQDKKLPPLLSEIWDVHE
Procedure, shortened: (§1)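 HEK293 cells transiently cotransfected with NFkB-AD fusions of full-length or LBD LXRα/β, GAL4-DBD fusions of SRC1 coactivator or NCoR corepressor domains, GAL4-driven firefly luciferase and Renilla control. Compound added 4 h post-transfection (≤0.2% DMSO), 16 h incubation; firefly and Renilla luminescence read sequentially.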

[2] = target: T2, GST-LXRβ ligand-binding domain (Homo sapiens, UniProt P55055, INS174Q); assay: TR-FRETβ activity assay (NCoA3 coactivator peptide recruitment); type: biochemical; settings: 1 μM 24(S)-25-epoxycholesterol as prestimulating agonist; inverse agonist unless *
T2 construct: amino acids 156-461; NP009052; made in house; host or cells: E. coli
T2 sequence (P55055 with tags, fused parts or gaps INS174Q limits assumed): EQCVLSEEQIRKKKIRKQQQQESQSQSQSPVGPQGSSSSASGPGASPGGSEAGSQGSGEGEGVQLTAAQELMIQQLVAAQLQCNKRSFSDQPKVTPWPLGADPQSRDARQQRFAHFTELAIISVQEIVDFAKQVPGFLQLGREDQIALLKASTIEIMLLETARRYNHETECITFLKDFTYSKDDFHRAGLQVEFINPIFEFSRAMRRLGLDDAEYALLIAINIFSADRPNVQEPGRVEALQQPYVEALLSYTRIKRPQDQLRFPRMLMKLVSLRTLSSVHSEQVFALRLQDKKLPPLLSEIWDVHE
Procedure, shortened: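 E. coli-expressed GST-LXRβ LBD (aa 156-461, 76 nM) with biotinylated NCoA3 peptide (400 nM), anti-GST-Tb cryptate donor and streptavidin-XL665 acceptor in 240 mM KCl, BSA, 0.002% Triton X-100. Equilibrated 1 h at 4° C; TR-FRET read at 615/665 nm, triplicates.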

[3] = target: T3, LXRβ full length (FL) (Homo sapiens, UniProt P55055, INS174Q); assay: LXR Gal4 reporter transient transfection assay, mammalian two-hybrid, FL-M2H Gal4β; type: cell-based; settings: HEK293 cells; inverse agonist unless *
T3 construct: the full length (FL) proteins of LXRα (amino acids 1-447); NP005684; NP009052; expressed in transfected cells; host or cells: HEK293
T3 sequence (P55055 with tags, fused parts or gaps INS174Q): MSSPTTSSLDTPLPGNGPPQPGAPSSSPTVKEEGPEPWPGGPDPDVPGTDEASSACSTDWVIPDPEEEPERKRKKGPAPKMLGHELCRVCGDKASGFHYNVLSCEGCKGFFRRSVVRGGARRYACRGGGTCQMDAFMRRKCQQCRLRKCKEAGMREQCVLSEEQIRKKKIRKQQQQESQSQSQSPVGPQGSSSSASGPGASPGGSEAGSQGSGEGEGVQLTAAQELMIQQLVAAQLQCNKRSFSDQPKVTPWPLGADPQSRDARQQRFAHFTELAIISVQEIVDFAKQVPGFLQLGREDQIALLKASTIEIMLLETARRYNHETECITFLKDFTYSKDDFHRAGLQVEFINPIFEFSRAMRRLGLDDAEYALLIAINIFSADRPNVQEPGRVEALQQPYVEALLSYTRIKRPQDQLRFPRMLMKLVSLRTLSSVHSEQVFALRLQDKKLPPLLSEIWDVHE
Procedure, shortened: as §1

SMILES	EC50 [1]	EC50 [2]	EC50 [3]
CC(C)(C(=O)O)c1cccc(-c2ccc(CN(Cc3ccc(C(F)(F)F)o3)C(C)(C)c3cccc4ccccc34)cc2)c1 [27/39]	100 to 1000 nM	< 100 nM	< 100 nM
Cc1ccc2ccccc2c1C(=O)N(Cc1ccc(-c2cccc(S(=O)(=O)CC(=O)O)c2)cc1)Cc1ccc(C#N)o1 [27/2]	1000 to 10000 nM	1000 to 10000 nM	1000 to 10000 nM
Cc1ccc2ccccc2c1C(=O)N(Cc1ccc(-c2cccc(C(C)(C)C(=O)O)c2)cc1)C1CCc2ccc(C(F)(F)F)cc21 (stereo not drawn) [27/5]	< 100 nM	100 to 1000 nM	< 100 nM
Cc1ccc2ccccc2c1CN(Cc1ccc(-c2cccc([C@H](C)C(=O)O)c2)cc1)Cc1ccc(C(F)(F)F)o1 [27/73]	< 100 nM	100 to 1000 nM	< 100 nM
Cc1ccc2ccccc2c1C(=O)N(Cc1ccc(C(F)(F)F)o1)Cc1ccc(-c2cncc(S(=O)(=O)CC(=O)O)c2)cc1C(F)(F)F [27/62]	1000 to 10000 nM	1000 to 10000 nM	100 to 1000 nM
CCc1ccc2ccccc2c1CN(Cc1ccc(-c2cccc(C(C)(C)C(=O)O)c2)cc1)Cc1ccc(C(F)(F)F)o1 [27/52]	< 100 nM	100 to 1000 nM	< 100 nM
COc1cc(-c2cccc(S(=O)(=O)CC(=O)O)c2)ccc1CN(Cc1ccc(C(F)(F)F)o1)C(=O)c1c(C)ccc2ccccc12 [27/61]	100 to 1000 nM	1000 to 10000 nM	100 to 1000 nM

Now from value to compound:

EC50 [1]	EC50 [2]	EC50 [3]	SMILES
100 to 1000 nM	1000 to 10000 nM	100 to 1000 nM	Cc1cc(C)c(CN(Cc2ccc(C(F)(F)F)o2)Cc2ccc(-c3cccc(S(=O)(=O)CC(=O)O)c3)cc2F)c(C)c1 [Example 15, 2-((3′-Fluoro-4′-((((5-(trifluoromethyl)furan-2-yl)methyl)(2,4,6-trimethylbenzyl)amino)methyl)-[1,1′-biphenyl]-3-yl)sulfonyl)acetic acid]
100 to 1000 nM	1000 to 10000 nM	100 to 1000 nM	COc1cc(-c2cccc(C(C)(C)C(=O)O)c2)ncc1CN(Cc1ccc(C(F)(F)F)o1)C(=O)c1c(C)ccc2ccccc12 [27/85]
< 100 nM	100 to 1000 nM	< 100 nM	Cc1nc2ccccc2c(C(=O)N(Cc2ccc(C(F)(F)F)o2)Cc2ccc(-c3cccc(C(C)(C)C(=O)O)c3)cc2C#N)c1C [27/105]
< 100 nM	< 100 nM	< 100 nM	Cc1ccc2ccccc2c1C(=O)N(Cc1ccc(-c2cccc([C@H](C)C(=O)O)c2)cc1)Cc1cccc(C(F)(F)F)c1 [27/83]
100 to 1000 nM	1000 to 10000 nM	< 100 nM	Cc1ccc2ccccc2c1C(=O)N(Cc1ccc(C(F)(F)F)o1)Cc1ccc(-c2cccc(C(C)(C)C(=O)O)c2)nc1N [27/91]
100 to 1000 nM	1000 to 10000 nM	100 to 1000 nM	Cc1nn2ncccc2c1C(=O)N(Cc1ccc(-c2cccc(C(C)(C)C(=O)O)c2)cc1)Cc1ccc(C(F)(F)F)o1 [27/122]
100 to 1000 nM	> 10000 nM	100 to 1000 nM	CNc1nc(-c2cccc(C(C)(C)C(=O)O)c2)ccc1CN(Cc1ccc(C(F)(F)F)o1)C(=O)c1c(C)ccc2ccccc12 [Example 32, 2-Methyl-2-(3-(5-((2-methyl-N-((5-(trifluoromethyl)furan-2-yl)methyl)-1-naphthamido)methyl)-6-(methylamino)pyridin-2-yl)phenyl)propanoic acid]
< 100 nM	1000 to 10000 nM	< 100 nM	CCOC(=O)OC(OC(=O)C(C)(C)c1cccc(-c2ccc(CN(Cc3ccc(C(F)(F)F)o3)C(=O)c3c(C)ccc4ccccc34)cc2)c1)C(C)C (stereo not drawn) [Example 31, 1-((Ethoxycarbonyl)oxy)-2-methylpropyl 2-methyl-2-(4′-((2-methyl-N-((5-(trifluoromethyl)furan-2-yl)methyl)-1-naphthamido)methyl)-[1,1′-biphenyl]-3-yl)propanoate]
< 100 nM	100 to 1000 nM	< 100 nM	Cc1c(C(=O)N(Cc2ccc(-c3cccc(C(C)(C)C(=O)O)c3)cc2)Cc2ccc(C(F)(F)F)o2)c2ccccc2n(C)c1=O [27/94]
